Assay results as given in US11434258B2, “Compounds (immunorhelins)” (ISR IMMUNE SYSTEM REGULATION HOLDING AB (PUBL), priority 2017, dated 2022).
Non-standard residues stand in square brackets, D forms with d. Residues, ends and D or L forms follow the SMILES beside them. *: point of attachment. dHis(τ-Bn) = N[C@H](Cc1cn(Cc2ccccc2)cn1)C(=O)O; d2Nal = N[C@H](Cc1ccc2ccccc2c1)C(=O)O; pGlu = O=C1CC[C@@H](C(=O)O)N1; tBu = CC(C)(C)*

Columns and labels:
[1] = Stability in aqueous media (PBS pH 7.4); type: physicochemical; design: unit not given here; conditions: phosphate buffer solution (PBS); PBS pH 7.4, 37° C., samples at T=0, 4, 24, 96 h; read-out: Stability grading (t1/2)
Source text: LC/MS data was collected for compound identity.

GnRHR = target: T1, GnRHR (Homo sapiens, UniProt P30968); test: Calcium assay in CHO-K1 cells (Genscript), FLIPR; type: cell-based; conditions: CHO-K1/GnRHR/Ga15 cells, relative to agonist control, read-out: GNRHR Stimulation at 1 μM
T1 construct: host or cells: CHO-K1 (CHO-K1/GnRHR/Ga15)
T1 sequence (P30968 1-328): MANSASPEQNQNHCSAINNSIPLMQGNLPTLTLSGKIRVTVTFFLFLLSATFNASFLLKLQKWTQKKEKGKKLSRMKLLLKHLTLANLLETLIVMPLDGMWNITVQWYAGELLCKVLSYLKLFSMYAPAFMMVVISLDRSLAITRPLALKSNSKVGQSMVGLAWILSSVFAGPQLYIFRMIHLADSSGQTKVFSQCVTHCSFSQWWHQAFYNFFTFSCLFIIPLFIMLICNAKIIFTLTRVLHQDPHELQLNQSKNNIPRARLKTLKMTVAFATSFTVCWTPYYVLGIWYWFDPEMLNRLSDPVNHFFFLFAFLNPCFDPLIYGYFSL
Procedure: Test article sample solutions were dissolved in HBSS buffer (with 20 mM HEPES buffer, pH 7.4) to form the 5× working solution. FLIPR® Calcium 4 assay kit from Molecular devices (R8141) was used as required. In brief, CHO-K1 cells expressing GnRHR (CHO-K1/GnRHR/Ga15, Genscript accession NM_000406) were respectively cultured in the 10-cm dishes and maintained at 37° C./5% CO2. CHO-K1 cells expressing GNRHR were respectively seeded in a 384-well black-wall, clear-bottom plate at a density of 15,000 cells per well in 20 μl of growth medium about 18 hours prior to the day of experiment and maintained at 37° C./5% CO2. Then, 20 μl of dye loading solution was added into the wells and the plates were subsequently placed into a 37° C. incubator for 60 minutes, followed by a 15 minutes' incubation at room temperature. At last, 10 μl of compounds or control agonist were added into respective wells of the assay plate during reading in FLIPR. The plate containing 5× compound and control agonist solution was placed in FLIPR. Solutions were added into the cell plate automatically at the 20 seconds and the fluorescence signal was monitored for an additional 100 seconds (21 sec to 120 sec.). Data were recorded by ScreenWorks (version 3.1) as FMD files with FLIPR and stored on the GenScript computer network for off-line analysis. Data acquisition and analyses was performed using ScreenWorks (version 3.1) program and exported to Excel. The average value of the first 20 seconds' reading was calculated as the baseline and the relative fluorescent units (ΔRFU) intensity values were calculated by subtracting the average value of baseline from the maximum fluorescent units (21 s to 120 s).
The % Stimulation was calculated with the following equation: % Stimulation=(ΔRFUCompound−ΔRFUBackground)/(ΔRFUAgonist control−ΔRFUBackground)×100
Dose response curves were fitted with four-parameter-logistic-equation by the software GraphPad Prism 6.
Equation: four parameter logistic equation. Y=Bottom+(Top-Bottom)/(1+10^((Log EC50−X)×Hillslope))
X is the logarithm of concentration. Y is the response.

[2] = Solubility in PBS (LC/UV AUC trend); conditions: PBS pH 7.4, 0.2 mg/ml; rating 1 (good) to 5 (poor)

| Structure (SMILES) | half-life at 0.2 mg/ml [1] | activation at 1 µM (GnRHR) [%] | Solubility grading [2] |
| --- | --- | --- | --- |
| CCNC(=O)[C@@H]1CCCN1C(=O)[C@H](CCCNC(=N)N)NC(=O)[C@H](CC(C)C)NC(=O)[C@@H](COC(C)(C)C)NC(=O)[C@H](Cc1c[nH]cn1)NC(=O)[C@H](CO)NC(=O)[C@H](Cc1c[nH]c2ccccc12)NC(=O)[C@H](Cc1c[nH]cn1)NC(=O)[C@@H]1CCC(=O)N1 [Compound 6, pGlu-His-Trp-Ser-His-D-Ser(tBu)-Leu-Arg-Pro-NHEt] ([pGlu]HWSH[dS](tBu)LRP-NHEt) | > 96 | 88 | 1 |
| CCNC(=O)[C@@H]1CCCN1C(=O)[C@H](CCCNC(=N)N)NC(=O)[C@H](Cc1c[nH]c2ccccc12)NC(=O)[C@@H](CC(C)C)NC(=O)[C@H](Cc1c[nH]cn1)NC(=O)[C@H](CO)NC(=O)[C@H](Cc1c[nH]c2ccccc12)NC(=O)[C@H](Cc1c[nH]cn1)NC(=O)[C@@H]1CCC(=O)N1 [Compound 47, pGlu-His-Trp-Ser-His-D-Leu-Trp-Arg-Pro-NHEt] ([pGlu]HWSH[dL]WRP-NHEt) | > 96 | 119 | 1 |
| N=C(N)NCCC[C@H](NC(=O)[C@H](Cc1c[nH]c2ccccc12)NC(=O)[C@@H](Cc1ccc2ccccc2c1)NC(=O)[C@H](Cc1c[nH]cn1)NC(=O)[C@H](CO)NC(=O)[C@H](Cc1c[nH]c2ccccc12)NC(=O)[C@H](Cc1c[nH]cn1)NC(=O)[C@@H]1CCC(=O)N1)C(=O)N1CCC[C@H]1C(=O)NCC(N)=O [Compound 27, pGlu-His-Trp-Ser-His-D-Nal-Trp-Arg-Pro-Gly-amide] ([pGlu]HWSH[d2Nal]WRPG-NH2) | > 96 | 108 | 1 |
| CC(C)C[C@H](NC(=O)[C@@H](Cc1ccc2ccccc2c1)NC(=O)[C@H](Cc1c[nH]cn1)NC(=O)[C@H](CO)NC(=O)[C@H](Cc1c[nH]c2ccccc12)NC(=O)[C@H](Cc1c[nH]cn1)NC(=O)[C@@H]1CCC(=O)N1)C(=O)N[C@@H](CCCNC(=N)N)C(=O)N1CCC[C@H]1C(=O)NCC(N)=O [Compound 23, pGlu-His-Trp-Ser-His-D-Nal-Leu-Arg-Pro-Gly-amide] ([pGlu]HWSH[d2Nal]LRPG-NH2) | > 96 | 106 | 1 |
| CCNC(=O)[C@@H]1CCCN1C(=O)[C@H](CCCNC(=N)N)NC(=O)[C@H](CC(C)C)NC(=O)[C@@H](CC(C)C)NC(=O)[C@H](Cc1c[nH]cn1)NC(=O)[C@H](CO)NC(=O)[C@H](Cc1c[nH]c2ccccc12)NC(=O)[C@H](Cc1c[nH]cn1)NC(=O)[C@@H]1CCC(=O)N1 [Compound 42, pGlu-His-Trp-Ser-His-D-Leu-Leu-Arg-Pro-NHEt] ([pGlu]HWSH[dL]LRP-NHEt) | > 96 | 102 | 1 |
| CCNC(=O)[C@@H]1CCCN1C(=O)[C@H](CCCNC(=N)N)NC(=O)[C@H](CC(C)C)NC(=O)[C@@H](Cc1cn(Cc2ccccc2)cn1)NC(=O)[C@H](Cc1c[nH]cn1)NC(=O)[C@H](CO)NC(=O)[C@H](Cc1c[nH]c2ccccc12)NC(=O)[C@H](Cc1c[nH]cn1)NC(=O)[C@@H]1CCC(=O)N1 [Compound 56, pGlu-His-Trp-Ser-His-D-Bhi-Leu-Arg-Pro-NHEt] ([pGlu]HWSH[dHis(τ-Bn)]LRP-NHEt) | > 96 | 96 | 1 |
| CCNC(=O)[C@@H]1CCCN1C(=O)[C@H](Cc1ccc(O)cc1)NC(=O)[C@H](Cc1c[nH]c2ccccc12)NC(=O)[C@@H](Cc1cn(Cc2ccccc2)cn1)NC(=O)[C@H](Cc1c[nH]cn1)NC(=O)[C@H](CO)NC(=O)[C@H](Cc1c[nH]c2ccccc12)NC(=O)[C@H](Cc1c[nH]cn1)NC(=O)[C@@H]1CCC(=O)N1 [Compound 63, pGlu-His-Trp-Ser-His-D-Bhi-Trp-Tyr-Pro-NHEt] ([pGlu]HWSH[dHis(τ-Bn)]WYP-NHEt) | < 96 | 77 | 5 |
| CC(C)C[C@H](NC(=O)[C@@H](Cc1ccc2ccccc2c1)NC(=O)[C@H](Cc1ccc(O)cc1)NC(=O)[C@H](CO)NC(=O)[C@H](Cc1c[nH]c2ccccc12)NC(=O)[C@H](Cc1c[nH]cn1)NC(=O)[C@@H]1CCC(=O)N1)C(=O)N[C@@H](Cc1ccc(O)cc1)C(=O)N1CCC[C@H]1C(=O)NCC(N)=O [Compound 25, pGlu-His-Trp-Ser-Tyr-D-Nal-Leu-Tyr-Pro-Gly-amide] ([pGlu]HWSY[d2Nal]LYPG-NH2) | < 96 | 82 | – |
| CCNC(=O)[C@@H]1CCCN1C(=O)[C@H](CCCNC(=N)N)NC(=O)[C@H](CC(C)C)NC(=O)[C@@H](COC(C)(C)C)NC(=O)[C@H](Cc1ccc(O)cc1)NC(=O)[C@H](CO)NC(=O)[C@H](Cc1c[nH]c2ccccc12)NC(=O)[C@H](Cc1cnc[nH]1)NC(=O)[C@@H]1CCC(=O)N1 [Buserelin acetate, reference compound] | – | – | 1 |
| CCNC(=O)[C@@H]1CCCN1C(=O)[C@H](Cc1ccc(O)cc1)NC(=O)[C@H](CC(C)C)NC(=O)[C@@H](Cc1cn(Cc2ccccc2)cn1)NC(=O)[C@H](Cc1ccc(O)cc1)NC(=O)[C@H](CO)NC(=O)[C@H](Cc1c[nH]c2ccccc12)NC(=O)[C@H](Cc1c[nH]cn1)NC(=O)[C@@H]1CCC(=O)N1 [Compound 59, pGlu-His-Trp-Ser-Tyr-D-Bhi-Leu-Tyr-Pro-NHEt] ([pGlu]HWSY[dHis(τ-Bn)]LYP-NHEt) | < 96 | 85 | – |
| CC(C)C[C@H](NC(=O)[C@@H](Cc1c[nH]c2ccccc12)NC(=O)[C@H](Cc1ccc(O)cc1)NC(=O)[C@H](CO)NC(=O)[C@H](Cc1c[nH]c2ccccc12)NC(=O)[C@H](Cc1c[nH]cn1)NC(=O)[C@@H]1CCC(=O)N1)C(=O)N[C@@H](Cc1ccc(O)cc1)C(=O)N1CCC[C@H]1C(=O)NCC(N)=O [Compound 14, pGlu-His-Trp-Ser-Tyr-D-Trp-Leu-Tyr-Pro-Gly-amide] ([pGlu]HWSY[dW]LYPG-NH2) | > 96 | 78 | – |
| NC(=O)CNC(=O)[C@@H]1CCCN1C(=O)[C@H](Cc1ccc(O)cc1)NC(=O)[C@H](Cc1c[nH]c2ccccc12)NC(=O)[C@@H](Cc1c[nH]c2ccccc12)NC(=O)[C@H](Cc1c[nH]cn1)NC(=O)[C@H](CO)NC(=O)[C@H](Cc1c[nH]c2ccccc12)NC(=O)[C@H](Cc1c[nH]cn1)NC(=O)[C@@H]1CCC(=O)N1 [Compound 65, pGlu-His-Trp-Ser-His-D-Trp-Trp-Tyr-Pro-Gly-amide] ([pGlu]HWSH[dW]WYPG-NH2) | > 96 | 72 | – |
| CCNC(=O)[C@@H]1CCCN1C(=O)[C@H](CCCNC(=N)N)NC(=O)[C@H](Cc1c[nH]c2ccccc12)NC(=O)[C@@H](CC(C)C)NC(=O)[C@H](Cc1ccc(O)cc1)NC(=O)[C@H](CO)NC(=O)[C@H](Cc1c[nH]c2ccccc12)NC(=O)[C@H](Cc1c[nH]cn1)NC(=O)[C@@H]1CCC(=O)N1 [Compound 44, pGlu-His-Trp-Ser-Tyr-D-Leu-Trp-Arg-Pro-NHEt] ([pGlu]HWSY[dL]WRP-NHEt) | > 96 | 111 | – |
| N=C(N)NCCC[C@H](NC(=O)[C@H](Cc1c[nH]c2ccccc12)NC(=O)[C@@H](Cc1c[nH]c2ccccc12)NC(=O)[C@H](Cc1c[nH]cn1)NC(=O)[C@H](CO)NC(=O)[C@H](Cc1c[nH]c2ccccc12)NC(=O)[C@H](Cc1c[nH]cn1)NC(=O)[C@@H]1CCC(=O)N1)C(=O)N1CCC[C@H]1C(=O)NCC(N)=O [Compound 20, pGlu-His-Trp-Ser-His-D-Trp-Trp-Arg-Pro-NHEt] | > 96 | 75 | – |
| CCNC(=O)[C@@H]1CCCN1C(=O)[C@H](Cc1ccc(O)cc1)NC(=O)[C@H](CC(C)C)NC(=O)[C@@H](CC(C)C)NC(=O)[C@H](Cc1ccc(O)cc1)NC(=O)[C@H](CO)NC(=O)[C@H](Cc1c[nH]c2ccccc12)NC(=O)[C@H](Cc1c[nH]cn1)NC(=O)[C@@H]1CCC(=O)N1 [Compound 45, pGlu-His-Trp-Ser-Tyr-D-Leu-Leu-Tyr-Pro-NHEt] ([pGlu]HWSY[dL]LYP-NHEt) | > 96 | 105 | – |
